Results from patent US11096940B2, “Treatment of hepatocellular carcinoma characterized by hepatitis B virus infection” (Celgene Corporation, priority 2017, dated 2021).
Entries after “also recorded” stand apart in the source; their conditions may differ.

Tests used:
Type in all cases: in vivo, human
[1] = PK analysis: plasma concentration in HCC patients by HBV status; settings: after oral Compound 1, first treatment cycle; FIGS. 3A, 3B
Method: The PK profiles of Compound 1 and its metabolite M1 were determined from serial blood and urine collections during the first treatment cycle. Plasma and urine Compound 1 and M1 were measured using validated chiral liquid chromatography-mass spectrometry methods. The lower limit of quantification (LLOQ) in plasma was 1.00 or 2.00 ng/mL for Compound 1 and 10.0 ng/mL for M1. The LLOQ in urine was 5.00 ng/mL for Compound 1 and 20 ng/mL for M1. […]

[2] = system: subjects with various hematologic or solid malignancies; experiment: Phase 1/2 clinical study Part A, dose escalation (MTD determination); settings: oral
Method: The study was designed as a Phase 1/2 trial consisting of two parts: dose escalation (Part A) and dose expansion (Part B).
Part A was an open-label, dose-escalating study of subjects with various hematologic or solid malignancies. The primary objectives were to determine the maximum tolerated dose (MTD) and the preliminary PK of Compound 1. The MTD of Compound 1 was determined to be 45 mg/day, and the nontolerated dose (NTD) was determined to be 60 mg/day. The PK and PD data supported once daily dosing with Compound 1.

[3] = Phase 1/2 clinical study Part B: safety and tolerability in HCC subjects; settings: subjects with HCC
Text: The primary objectives for Part B were (a) to determine the safety and tolerability of Compound 1 when administered orally and (b) to determine the preliminary PK of Compound 1 following both single and multiple oral dosing of Compound 1.
(§1) Subjects received continuous daily dosing of Compound 1 in 28-day cycles (FIG. 1). Therapy was discontinued if there was evidence of disease progression, but subjects continued to receive Compound 1 as long as the investigator considered that the subjects derived benefit from treatment. Therapy was discontinued if there was unacceptable toxicity or if the subject decided to withdraw from the study. Subjects were contacted 28 days after the last dose of study drug to assess the status of adverse events (AEs) and to determine whether any new events or death had occurred. In addition to those subjects who had died on study, approximately 28 subjects were consented for follow-up every 2 months (±1 week) after completing the treatment phase in order to determine their date of death and complete an overall survival analysis.

[4] = system: subjects with HCC; experiment: Phase 1/2 clinical study Part B, dose expansion: efficacy (RECIST response, OS, PFS) in HCC subjects
Text: Part B, the preliminary efficacy-seeking phase, was an open-label, dose-expansion study, which involved subjects with HCC.
as §1
Accordingly to the original protocol of Part B, 25 HCC patients started treatment of Compound 1 at 45 mg/day. After the protocol Amendment 9, 28 new HCC subjects in an additional cohort were started at 30 mg/day. The appropriateness of the 30 mg/day dose was supported by the PK and PD data from Part A. Compound 1 was administered orally, in an uninterrupted once daily schedule with no rest period between each 28-day cycle. Subjects continued to receive Compound 1 for as long as they derived benefit from treatment as judged by the investigator.
All efficacy analyses were based on both the TP and EE Population. Subjects were evaluated for efficacy during Cycles 2, 4, 6, and every 3 months after Cycle 6. The primary efficacy variable was response rate. Efficacy endpoints for HCC matured once all enrolled subjects had withdrawn from the study.
Tumor response for HCC was based on investigator's overall evaluation with RECIST. Response rate was determined by a best overall response of either CR or PR. Disease control rate (DCR) included CR, PR, and SD.
OS was defined as the time from first dose to death. All deaths, regardless of the cause of death, were included. Subjects who had not died were censored at the last contact date when the subject was known to be alive or the clinical cut-off date, whichever was earlier.
Median of OS times were calculated using the Kaplan-Meier method and the corresponding 95% CIs were presented.

[5] = system: alpha-fetoprotein (AFP); experiment: Assessment of AFP in HCC patients; settings: two HBV positive HCC patients with PR (FIG. 10)
Method: For the HCC subjects, baseline and change from baseline in AFP and HBV viral load (HBsAg positive subjects only) were summarized with descriptive statistics. In addition, a Wilcoxon's signed rank test was conducted to analyze change from baseline in AFP at selected scheduled visits. The p-values of such tests were provided. Change from baseline in HBV viral load was analyzed similarly. The percentage of subjects with a >50% decline from baseline in AFP was summarized for the TP.

For CO[C@H]1CC[C@H](N2C(=O)CNc3ncc(-c4ccc(C(C)(C)O)nc4)nc32)CC1 [Compound 1, 7-(6-(2-hydroxypropan-2-yl)pyridin-3-yl)-1-((trans)-4-methoxycyclohexyl)-3,4-dihydropyrazino[2,3-b]pyrazin-2(1H)-one], the “plasma exposure in HBV infected HCC patients (n=12) versus non-HBV infected HCC patients (n=39)” value [1] was “comparable to the exposure observed in non-HBV infected HCC patients”, the “maximum tolerated dose (MTD)” value [2] was 45 mg/day and the “nontolerated dose (NTD)” value [2] was 60 mg/day. For the same compound, the tolerability [3] was “well tolerated”, the DCR ([4]; EE Population) was 68.3% and the ORR ([4]; EE Population) was 7.3%. For the same compound, the “rate of tumor regression relative to pretreatment” value ([4]; EE Population) was 56.1%, the “median OS” value ([4]; HBV infected HCC patients) was 12.07 months and the ORR ([4]; HBV negative subgroups) was 0%. The “disease control rate (DCR)” value ([4]; HBV negative subjects) was 43.9%, the “median OS” value ([4]; HBV negative subjects) was 22.4 weeks and the “median PFS” value ([4]; HBV negative subjects) was 14.4 weeks. For the same compound, the “target tumor shrinkage rate” value ([4]; HBV negative subjects) was 39.0%, the ORR ([4]; HBV positive subjects) was 25% and the “disease control rate (DCR)” value ([4]; HBV positive subjects) was 91.7%. The “median OS” value ([4]; HBV positive subjects) was 52.4 weeks, the “median PFS” value ([4]; HBV positive subjects) was 14.8 weeks and the “target tumor shrinkage rate” value ([4]; HBV positive subjects) was 66.7%. The “complete response (CR)” value ([4]; HCC TP) was “No subject experienced a CR”, the “overall response rate (ORR)” value ([4]; HCC TP) was 5.7% and the “subjects with best response of SD” value ([4]; HCC TP) was 49.1%. For the same compound, the “number of subjects with >30% regression of target tumor lesion” value ([4]; HCC cohort, RECIST 1.1 (FIG. 7)) was “Five”, the “median OS” value ([4]; HCC cohort, all patients (FIG. 5A)) was 6.9 months and the “median PFS” value ([4]; HCC cohort, all patients (FIG. 6A)) was 16 weeks. For the same compound, the “number of subjects achieving PR” value ([4]; HCC cohort, all HBV positive) was 3 subjects, the “median OS” value ([4]; TP) was 30.0 weeks and the “median PFS” value ([4]; TP) was 3.7 months. For the same compound, the “disease control rate (DCR)” value ([4]; all subjects (HCC TP)) was 54.7%, the “rate of target tumor shrinkage (target lesion regression relative to pretreatment)” value ([4]; all subjects (HCC TP)) was 45.3% and the “median OS” value ([4]; non-HBV infected HCC patients) was 5.16 months. For the same compound, the “median duration of response (DOR)” value ([4]; the 3 subjects who reached PR) was 124.0 days, the “median duration of SD” value ([4]; the 26 subjects with best response of SD) was 112.0 days and the “radiographic response at first on-treatment restaging compared to baseline” value ([4]; two HBV infected HCC patients, Patient A and Patient B (FIG. 9)) was “regression of intrathoracic metastases; also recorded: intrahepatic tumor regression”. For the same compound, the “AFP on treatment compared to baseline” value [5] was “early clinically significant, marked reduction of AFP”.
